The subject of experiment [1] is Diplococcus pneumoniae Type III. In words: MIC, broth dilution method. Type of experiment: cell-based. As to conditions: Streptococcus pneumoniae; Table 7; no unit in the head; horse serum in the medium at 10%; read-out: Minimum inhibitory concentration. Background: Dilution methods test growth across graded concentrations, often in twofold steps.
For experiment [2], the system named is Inducible penicillinase of Bacillus cereus 569 (ATCC 27348). As to the kind of experiment: Susceptibility to beta-lactamase as enzymic substrate. In kind it is biochemical. As to conditions: for Km: 30° C., pH 6.8 phosphate buffer, decrease of optical density at 301 nm (PS-6) or 308 nm (PS-7); for Behavior against β-lactamase: β-lactamase of Bacillus cereus. The procedure: (b) Inducible penicillinase of Bacillus cereus 569 (ATCC 27348). This beta-lactamase was induced by ampicillin and purified by CM-cellulose column chromatography.
(§1) Time course of the hydrolysis was traced at 30° C. by determining the decrease in optical density at 301 nm which corresponds specifically to the concentration of antibiotic PS-6. As described in Japanese Patent Application No. 94651/77, the antibiotic PS-5 sodium salt preparation gave a E1 cm^1% value of 267.5 at the λmax of 301 nm. If this preparation contained no water of crystallization, its epsilon value would be 8560.
(§2) As 5% of the initial optical density of antibiotic PS-5 at 301 nm remained even after the complete decomposition with hydroxylamine or beta-lactamase, the differential optical density of this substrate at 301 nm was supposed to be Δε=8132. This was supposed to be applicable to the antibiotic PS-6, and the following calculation was carried out.
(b) Inducible penicillinase of Bacillus cereus 569. Time course of the hydrolysis of antibiotic PS-6 by this beta-lactamase was followed under the above-described conditions by determining the optical density at 301 nm of the reaction mixtures containing 7.5 μl of the above mentioned enzyme preparation and […] of antibiotic PS-6 as the substrate in a total of 3.0 ml (final concentration of antibiotic PS-6=[…]/ml=8.63 μg/ml; optical density at 301 nm=0.366).
The behavior of the antibiotic PS-7 (sodium salt) against the induced-type penicillinase produced by Bacillus careus 569 (ATCC 27348) as the substrate was examined according to the following method:
Sodium salt of the antibiotic PS-7 was dissolved in 100 mM phosphate buffer solution (pH 6.8) at the indicated concentration.
The induced-type penicillinase of Bacillus cereus 569 (ATCC 27348) was induced by Ampicillin and partially purified by CM cellulose (Brown Co.) column chromatography.
The solution of the antibiotic PS-7 that was served as the substrate was warmed at 30° C. […] The reaction was carried out at 30° C. and a decrease in the substrate, antibiotic PS-7, was monitered by the absorbance at 308 nm.
A balance of absorbance at 308 nm was determined to be ε=9720 on the assumption that the ε value of the antibiotic PS-7 is 10,800 based on the decrease in the absorbance when pure preparation of the antibiotic PS-7 was completely decomposed by the enzyme above mentioned.
A reaction mixture containing 10 μl of the penicillinase preparation and 102 mμ moles of the antibiotic PS-7 (final concentration: 34 mμ moles/ml) in a total volumn of 3.0 ml was incubated under the conditions mentioned above and change of decreasing concentration of the antibiotic PS-7 was measured in relation to the incubation time.

Experiment [3] relates to Staphylococcus aureus FDA 209P. As to the kind of experiment: MIC, broth dilution method. Type of experiment: cell-based. As to conditions: Staphylococcus aureus, FDA209P; Table 7; no unit in the head; read-out: Minimum inhibitory concentration.
The next experiment deals with Proteus vulgaris P-5. As to the kind of experiment: MIC, broth dilution method. As to conditions: Proteus vulgaris, P5, 20 h, read-out: Minimum inhibitory concentration.
Experiment [4] relates to Staphylococcus aureus Bx-1633. As to the kind of experiment: MIC, broth dilution method. As to conditions: BX1633, 20 h, read-out: Minimum inhibitory concentration.
Experiment [5] has as its system Streptococcus pyogenes NY-5. As to the kind of experiment: MIC, broth dilution method. As to conditions: Streptococcus pyogenes, NY5, 20 h, read-out: Minimum inhibitory concentration.
The test system of experiment [6] is Bacillus subtilis ATCC 6633. As to the kind of experiment: MIC, broth dilution method. The note with it: ATCC6633, 20 h, read-out: Minimum inhibitory concentration.
A further experiment relates to Proteus mirabilis P-6. In words: MIC, broth dilution method. The note with it: P6, 20 h, read-out: Minimum inhibitory concentration.
For experiment [7], the target named is T1, Exo-penicillinase of Bacillus licheniformis 749/C (ATCC 25972) (Bacillus licheniformis, UniProt P00808).
T1 construct: made in house; host or cells: Bacillus licheniformis 749/C (ATCC 25972)
In words: Susceptibility to beta-lactamase as enzymic substrate. Type of experiment: biochemical. As to conditions: 15 minutes, 30° C., PS-6 3.3 μg/ml, optical density at 301 nm. The procedure:
(a) Exo-penicillinase of Bacillus licheniformis 749/C (ATCC 25972). Purified by cephalexin-Sepharose 4B (Pharmacia Fine Chemicals AB) affinity column chromatography. The potency of this enzyme preparation was 16,600 units/ml. when the hydrolysis of potassium penicillin G was measured by iodometry at 30° C. in M/10, pH 6.8, phosphate buffer. One unit of penicillinase means the amount of enzyme that can hydrolyze 1 micromole of penicillin G for 60 minutes at 30° C. with a pH 6.8.
as §1, §2
(a) Exo-penicillinase of Bacillus licheniformis 749/C.

A further experiment has as its system Enterobacter sp. E-8. In words: MIC, broth dilution method. The note with it: SP.E8, 20 h, read-out: Minimum inhibitory concentration.
In the next experiment the test system is Proteus rettgeri P-7. As to the kind of experiment: MIC, broth dilution method. As to conditions: Providencia rettgeri, P7, 20 h, read-out: Minimum inhibitory concentration.
The subject of experiment [8] is Staphylococcus aureus FDA 209P. In words: MIC, broth dilution method. The note with it: FDA209P, Table 5, 35° C. 20 hours, read-out: Minimum inhibitory concentration. Type of experiment: cell-based.
Experiment [9] concerns Staphylococcus aureus Rassell. As to the kind of experiment: MIC, broth dilution method. The note with it: 20 h, read-out: Minimum inhibitory concentration.

The structures appear in SMILES notation. Converted amounts (≈) assume the structure as drawn. Like-named read-outs stand apart in the source and are kept apart here.

T1 sequence (P00808 43-307): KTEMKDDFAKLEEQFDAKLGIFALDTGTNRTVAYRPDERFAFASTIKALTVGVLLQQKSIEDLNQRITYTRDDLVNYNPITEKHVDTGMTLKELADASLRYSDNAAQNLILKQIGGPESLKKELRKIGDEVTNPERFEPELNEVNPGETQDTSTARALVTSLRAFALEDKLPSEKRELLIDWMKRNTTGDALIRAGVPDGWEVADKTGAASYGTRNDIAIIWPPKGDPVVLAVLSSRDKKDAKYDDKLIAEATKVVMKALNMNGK

By Km is commonly meant the concentration of substrate that gives half-maximal velocity. Turning to `CCC1C(=O)N2C(C(=O)O)=C(SC=CNC(C)=O)CC12` (stereo not shown) [Antibiotic PS-7], the MIC in experiment [1] and in experiment [3] was less than 0.19 µg/mL each time. The Michaelis constant (Km) in experiment [2] is 13 µM. The “Behavior against β-lactamase” value in experiment [2] is given as “inactivated”.
On to `CC(=O)NCCSC1=C(C(=O)O)N2C(=O)C(C(C)C)C2C1` (stereo not shown) [Antibiotic PS-6], for which the MIC in the experiment with Proteus vulgaris P-5 turned out to be 25 µg/mL (≈ 80 µM); in experiment [4], 0.33 µg/mL (≈ 1.06 µM); in experiment [5], 0.33 µg/mL (≈ 1.06 µM); in experiment [6] it was 1.34 µg/mL (≈ 4.29 µM); in the experiment with Proteus mirabilis P-6, 12.5 µg/mL (≈ 40 µM); in the experiment on Enterobacter sp. E-8, 12.5 µg/mL (≈ 40 µM). Moreover, the MIC came to 6.25 µg/mL (≈ 20 µM) in the experiment with Proteus rettgeri P-7, 0.33 µg/mL (≈ 1.06 µM) in experiment [8] and 1.34 µg/mL (≈ 4.29 µM) in experiment [9]. Also, the Km in experiment [2] turned out to be 17.7 µM. Further, the “Behavior against β-lactamase” value in experiment [2] is given as “inactivated”. Further, the “Hydrolysis by the beta-lactamase” value in experiment [7] was “without a substantial hydrolysis”.

The values above are taken from patent US4368203A, “Antibiotics and derivatives thereof having β-lactamase inhibitory activity and production thereof” (priority 1977, dated 1983).
